Assay results: US20230167132A1, “FORMS AND COMPOSITIONS OF INHIBITORS OF PLASMA KALLIKREIN” (Takeda Pharmaceutical Company Limited, priority 2020, published 2023)
Where two headings read alike, the source gives them in different places.

Legend:
[1] = Solubility of Compound 1 in various solvents; type: physicochemical
Protocol: Solubility of >10 mg/mL was only observed in DMSO, NMP and MeOH:DCM 1:3 at 50° C.

plasma kallikrein = plasma kallikrein (Homo sapiens, UniProt P03952); details: in vitro kallikrein kinase assay, reported in the '129 publication; cited from earlier work
Chain of plasma kallikrein (P03952 20-638, species assumed): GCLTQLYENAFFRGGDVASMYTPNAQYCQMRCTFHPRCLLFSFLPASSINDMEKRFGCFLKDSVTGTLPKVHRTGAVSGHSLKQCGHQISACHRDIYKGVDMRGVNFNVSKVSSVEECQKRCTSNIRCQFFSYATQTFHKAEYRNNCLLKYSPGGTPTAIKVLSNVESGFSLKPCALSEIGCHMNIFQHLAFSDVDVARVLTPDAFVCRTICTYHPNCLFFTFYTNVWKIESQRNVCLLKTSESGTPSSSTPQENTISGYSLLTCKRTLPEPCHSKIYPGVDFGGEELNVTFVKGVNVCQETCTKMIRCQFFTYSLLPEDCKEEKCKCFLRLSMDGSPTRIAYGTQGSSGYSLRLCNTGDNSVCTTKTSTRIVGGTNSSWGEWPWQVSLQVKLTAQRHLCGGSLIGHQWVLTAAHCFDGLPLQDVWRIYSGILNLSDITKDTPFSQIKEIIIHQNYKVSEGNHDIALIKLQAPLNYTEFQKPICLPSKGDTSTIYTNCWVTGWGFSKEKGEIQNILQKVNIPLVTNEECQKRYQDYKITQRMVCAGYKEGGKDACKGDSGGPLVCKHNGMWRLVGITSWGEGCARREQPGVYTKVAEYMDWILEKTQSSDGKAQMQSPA

## O=C(NCc1ncn2ccc(Cl)c(F)c12)c1cn(Cc2cn3cc(C4CC4)ccc3n2)nn1 [Compound 1, N-((7-chloro-8-fluoroimidazo[1,5-a]pyridin-1-yl)methyl)-1-((6-cyclopropylimidazo[1,2-a]pyridin-2-yl)methyl)-1H-1,2,3-triazole-4-carboxamide]
[1]; 25 °C, organic solvent or mixture, all solvents assessed, Compound 1 as synthesized in Example 1, read-out: solubility at 25° C.
  solubility: < 10000 µg/mL
[1]; Acetone, 50 °C, organic solvent or mixture, read-out: Solubility at 50° C.
  solubility: < 10000 µg/mL
[1]; Acetone:H2O 9:1, 50 °C, organic solvent or mixture, read-out: Solubility at 50° C.
  solubility: < 10000 µg/mL
[1]; Acetonitrile, 50 °C, organic solvent or mixture, read-out: Solubility at 50° C.
  solubility: < 10000 µg/mL
[1]; Acetonitrile:H2O 1:1, 50 °C, aqueous with cosolvent or surfactant or cyclodextrin, read-out: Solubility at 50° C.
  solubility: < 10000 µg/mL
[1]; DCM, 50 °C, organic solvent or mixture, read-out: Solubility at 50° C.
  solubility: < 10000 µg/mL
[1]; DMAC, 50 °C, organic solvent or mixture, read-out: Solubility at 50° C.
  solubility: < 10000 µg/mL
[1]; DMF, 50 °C, organic solvent or mixture, read-out: Solubility at 50° C.
  solubility: < 10000 µg/mL
[1]; DMSO
  Solubility at 50° C.: >10000 µg/mL
[1]; DMSO, 50 °C, organic solvent or mixture, read-out: Solubility at 50° C.
  solubility: > 10000 µg/mL
[1]; Ethanol, 50 °C, organic solvent or mixture, read-out: Solubility at 50° C.
  solubility: < 10000 µg/mL
[1]; Ethyl acetate, 50 °C, organic solvent or mixture, read-out: Solubility at 50° C.
  solubility: < 10000 µg/mL
[1]; IPA, 50 °C, organic solvent or mixture, read-out: Solubility at 50° C.
  solubility: < 10000 µg/mL
[1]; IPAC, 50 °C, organic solvent or mixture, read-out: Solubility at 50° C.
  solubility: < 10000 µg/mL
[1]; MEK, 50 °C, organic solvent or mixture, read-out: Solubility at 50° C.
  solubility: < 10000 µg/mL
[1]; MIBK, 50 °C, organic solvent or mixture, read-out: Solubility at 50° C.
  solubility: < 10000 µg/mL
[1]; MeOH:Chlorobenzene (1:1), 50 °C, organic solvent or mixture, read-out: Solubility at 50° C.
  solubility: < 10000 µg/mL
[1]; MeOH:DCM 1:3
  Solubility at 50° C.: >10000 µg/mL
[1]; MeOH:DCM 1:3, 50 °C, organic solvent or mixture, read-out: Solubility at 50° C.
  solubility: > 10000 µg/mL
[1]; MeOH:H2O 9:1, 50 °C, organic solvent or mixture, read-out: Solubility at 50° C.
  solubility: < 10000 µg/mL
[1]; MeOH:Toluene (1:1), 50 °C, organic solvent or mixture, read-out: Solubility at 50° C.
  solubility: < 10000 µg/mL
[1]; MeOH:anisole (1:1), 50 °C, organic solvent or mixture, read-out: Solubility at 50° C.
  solubility: < 10000 µg/mL
[1]; Methanol, 50 °C, organic solvent or mixture, read-out: Solubility at 50° C.
  solubility: < 10000 µg/mL
[1]; NMP
  Solubility at 50° C.: >10000 µg/mL
[1]; NMP, 50 °C, organic solvent or mixture, read-out: Solubility at 50° C.
  solubility: > 10000 µg/mL
[1]; TBME, 50 °C, organic solvent or mixture, read-out: Solubility at 50° C.
  solubility: < 10000 µg/mL
[1]; THF, 50 °C, organic solvent or mixture, read-out: Solubility at 50° C.
  solubility: < 10000 µg/mL
[1]; THF:H2O 9:1, 50 °C, organic solvent or mixture, read-out: Solubility at 50° C.
  solubility: < 10000 µg/mL
[1]; Toluene, 50 °C, organic solvent or mixture, read-out: Solubility at 50° C.
  solubility: < 10000 µg/mL
[1]; n-heptane, 50 °C, organic solvent or mixture, read-out: Solubility at 50° C.
  solubility: < 10000 µg/mL
[1]; t-BuOH, 50 °C, organic solvent or mixture, read-out: Solubility at 50° C.
  solubility: < 10000 µg/mL
[1]; t-BuOH:H2O 1:1, 50 °C, aqueous with cosolvent or surfactant or cyclodextrin, read-out: Solubility at 50° C.
  solubility: < 10000 µg/mL
Plasma kallikrein
  EC50: < 1 nM
